Among the data in PubChem BioAssay (NCI) are GI50 and TGI values, retold here.

“And” between values parts separate entries of the source, which are not always exact repeats. Equal values may be shown once.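 Cultured in 96-well plates, cells were exposed to test compound for 48 hours across five concentrations. GI50 is the concentration that inhibits growth by half. TGI is the concentration that stops growth completely.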

Holding throughout (test): inhibition of tumour cell growth, NCI panel, 48 h
The test system of experiment [1] is HOP-62 NSCLC.
The subject of experiment [2] is RPMI-8226 leukemia.
In experiment [3] the test system is U251 CNS.
The subject of experiment [4] is OVCAR-8 ovarian.
Experiment [5] has as its system OVCAR-5 ovarian.
Experiment [6] concerns 786-0 renal.
For experiment [7], the system named is SR leukemia.
Experiment [8] deals with MCF7 breast.
The test system of experiment [9] is SNB-19 CNS.
The test system of experiment [10] is A549 NSCLC.

As to `O=[N+]([O-])c1cccc2ccc(N/N=C/c3ccccc3O)nc12`, the GI50 in experiment [1] is > 100 µM; in experiment [2], 0.027 µM; in [3], > 59.7 µM; in [4], > 100 µM; in experiment [5], > 100 µM; in [6], > 100 µM. Also, the GI50 is 0.148 µM in experiment [7], 2.34 µM in experiment [8], > 100 µM in [9] and > 100 µM in experiment [10]. Besides, the TGI in experiment [1] was > 100 µM; in [2], 3.12 µM; in [3], > 100 µM; in [4], > 100 µM; in experiment [5], > 100 µM; in experiment [6], > 100 µM. In addition, the TGI in [7] was 7.03 µM; in experiment [8] it was > 100 µM; in [9] it was > 100 µM; in [10], > 100 µM.

Turning to `CN(C)CCC(=O)C(=Cc1ccc(O)cc1)C(=O)CCN(C)C`, the GI50 was > 100 µM in experiment [1]; 27.8 µM in [2]; 61.5 µM in experiment [3]; > 100 µM in experiment [4]; > 100 µM in experiment [5]; > 100 µM in experiment [6]. The GI50 in experiment [7] is 93.2 µM; in experiment [8], 30.9 µM; in experiment [9] it was > 100 µM; in experiment [10], > 100 µM. For the same compound, the TGI in experiment [1], in experiment [2], in experiment [3], in experiment [4], in experiment [5] and in experiment [6] was > 100 µM in each case. In addition, the TGI in experiment [7], in [8], in experiment [9] and in experiment [10] was > 100 µM each time.

Take `Cc1cc2cc3c(=O)[nH]c(=O)[nH]c3nc2cc1C`: the TGI in experiment [1], in experiment [2], in experiment [3], in experiment [4], in [5] and in experiment [6] was > 100 µM each time. The TGI in experiment [7], in experiment [8], in experiment [9] and in [10] was > 100 µM throughout.

As for `COC12C(COC(N)=O)C3=C(C(=O)C(C)=C(N)C3=O)N1CC1C2N1C` (centres undefined), the TGI in [1] was 16.8 µM; in experiment [2], > 85.5 µM; in experiment [3], 22.6 µM; in experiment [4], 53.1 µM; in [5], 63.1 µM; in experiment [6] it was 68.5 µM. Moreover, the TGI amounted to 56.5 µM in experiment [7], 22.3 µM in [8], 62.5 µM in [9] and 24.2 µM in experiment [10].

With `BrCc1cccc(C[P+](c2ccccc2)(c2ccccc2)c2ccccc2)c1`, the GI50 in experiment [1] was 4.86 µM; in experiment [2], 2.18 µM; in [3], 6.86 µM; in [4], 6.65 µM; in experiment [5], 30.2 µM; in [6], 46.2 µM. The GI50 in experiment [7] is 25.8 µM; in experiment [8], 13.4 µM; in [9], 12.1 µM; in experiment [10] it was 42.3 µM. Moreover, the TGI in [1] was > 100 µM; in experiment [2], 22.7 µM; in [3], > 100 µM; in experiment [4], > 100 µM; in experiment [5], > 100 µM; in experiment [6], > 100 µM. Also, the TGI in experiment [7], in experiment [8], in experiment [9] and in experiment [10] was > 100 µM in each case.

As to `CSc1nc(NC2OC(COC(C)=O)C(OC(C)=O)C(OC(C)=O)C2OC(C)=O)c(N=CC=Nc2c(NC3OC(COC(C)=O)C(OC(C)=O)C(OC(C)=O)C3OC(C)=O)nc(SC)n(C)c2=O)c(=O)n1C` (centres undefined), the GI50 is 21.2 µM in experiment [1]; 20.6 µM in experiment [3]; > 50 µM in experiment [4]; > 50 µM in experiment [5]; 16.7 µM in [6]; > 50 µM in [7]. The GI50 in experiment [8] was > 50 µM; in experiment [9] it was 21.1 µM; in experiment [10], > 50 µM. In addition, the TGI was 50 µM and 29.8 µM in [1]; > 100 µM in [2]; 50 µM and > 100 µM in experiment [3]; > 100 µM in experiment [4]; > 100 µM in experiment [5]; 50 µM and > 80.6 µM in [6]. Moreover, the TGI in experiment [7] was > 100 µM; in experiment [8] it was > 100 µM; in experiment [9], 50 µM and 92.1 µM; in [10], > 100 µM.

Take `Oc1ccc(Nc2c3ccccc3nc3occ(Cl)c23)cc1`: the GI50 is 4.37 µM in experiment [1]; 1.61 µM in experiment [2]; 5.63 µM in [3]; 5.5 µM in experiment [4]; 19 µM in [5]; 12.9 µM in experiment [6]. Besides, the GI50 in experiment [7] was 2.3 µM; in experiment [8] it was 3.38 µM; in experiment [9] it was 4.62 µM; in experiment [10], 3.3 µM. Also, the TGI was 36.2 µM in [1]; 4.81 µM in [2]; > 100 µM in experiment [3]; 57.9 µM in experiment [4]; > 100 µM in [5]; > 100 µM in experiment [6]. The TGI was 8.62 µM in [7], 11.3 µM in experiment [8], > 100 µM in [9] and 32.2 µM in [10].

For `CCOC(=O)c1c(-c2ccc(OC)cc2)c(C#N)c2c(C#N)c(N)nn2c1N`, the GI50 in [1] is 3.32 µM; in experiment [2] it was 2.31 µM; in experiment [3], 4.19 µM; in [4], 4.27 µM; in experiment [5] it was 5.65 µM; in experiment [6], 3.85 µM. In addition, the GI50 was 2.05 µM in experiment [7], 3.31 µM in experiment [8], 4.01 µM in experiment [9] and 5.06 µM in experiment [10]. Moreover, the TGI in experiment [1] was 22.1 µM; in experiment [2] it was > 100 µM; in experiment [3], 23.7 µM; in experiment [4], > 100 µM; in experiment [5], > 100 µM; in [6], 23.3 µM. The TGI in [7] is > 100 µM; in experiment [8], > 100 µM; in experiment [9], 22.5 µM; in experiment [10], > 100 µM.
